Several values for one entry are separate records, joined by “and”; a condition that tells them apart may be missing. Equal entries are not always repeated.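 Grown in 96-well plates, cells were treated for 48 hours with each compound at five concentrations. Insufficient inhibition: endpoint recorded as highest concentration tested. Here, GI50 denotes the concentration required for 50% inhibition of growth. Definition used: TGI = concentration required for complete inhibition of growth.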
How the values were obtained:
Assay in all cases: NCI-60 cell line screen, 48 h
CAKI-1 renal = test system: CAKI-1 renal
SNB-78 CNS = test system: SNB-78 CNS
LXFL 529 NSCLC = test system: LXFL 529 NSCLC
MALME-3M melanoma = test system: MALME-3M melanoma
OVCAR-8 ovarian = test system: OVCAR-8 ovarian
KM12 colon = test system: KM12 colon
OVCAR-4 ovarian = test system: OVCAR-4 ovarian
NCI-H226 lung = test system: NCI-H226 lung
SK-MEL-5 melanoma = test system: SK-MEL-5 melanoma
HCC-2998 colon = test system: HCC-2998 colon
IGROV1 ovarian = test system: IGROV1 ovarian
HOP-62 NSCLC = test system: HOP-62 NSCLC
M14 melanoma = test system: M14 melanoma
NCI-H23 lung = test system: NCI-H23 lung
SK-MEL-2 melanoma = test system: SK-MEL-2 melanoma
DMS 273 small cell lung = test system: DMS 273 small cell lung
OVCAR-5 ovarian = test system: OVCAR-5 ovarian
HL-60(TB) leukemia = test system: HL-60(TB) leukemia
HT29 colon = test system: HT29 colon
DMS 114 small cell lung = test system: DMS 114 small cell lung
CCRF-CEM leukemia = test system: CCRF-CEM leukemia
RPMI-8226 leukemia = test system: RPMI-8226 leukemia
SK-OV-3 ovarian = test system: SK-OV-3 ovarian
DLD-1 colon = test system: DLD-1 colon
U251 CNS = test system: U251 CNS
LOX IMVI melanoma = test system: LOX IMVI melanoma
RXF 393 renal = test system: RXF 393 renal
TK-10 renal = test system: TK-10 renal
SNB-75 CNS = test system: SNB-75 CNS
A498 renal = test system: A498 renal
NCI-H460 lung = test system: NCI-H460 lung
ACHN renal = test system: ACHN renal
M19-MEL melanoma = test system: M19-MEL melanoma
MOLT-4 leukemia = test system: MOLT-4 leukemia
NCI-H522 lung = test system: NCI-H522 lung
OVCAR-3 ovarian = test system: OVCAR-3 ovarian
HCT-15 colon = test system: HCT-15 colon
K-562 leukemia = test system: K-562 leukemia
786-0 renal = test system: 786-0 renal
COLO 205 colon = test system: COLO 205 colon
SF-268 CNS = test system: SF-268 CNS
HCT-116 colon = test system: HCT-116 colon
A549 NSCLC = test system: A549 NSCLC
KM20L2 colon = test system: KM20L2 colon
SF-539 CNS = test system: SF-539 CNS
SW-620 colon = test system: SW-620 colon
SN12C renal = test system: SN12C renal
SK-MEL-28 melanoma = test system: SK-MEL-28 melanoma
UO-31 renal = test system: UO-31 renal
SNB-19 CNS = test system: SNB-19 CNS
HOP-18 NSCLC = test system: HOP-18 NSCLC
UACC-257 melanoma = test system: UACC-257 melanoma
SF-295 CNS = test system: SF-295 CNS
MDA-MB-231 breast = test system: MDA-MB-231 breast
MDA-MB-435 = test system: MDA-MB-435
SR leukemia = test system: SR leukemia
T-47D breast = test system: T-47D breast
NCI/ADR-RES ovarian = test system: NCI/ADR-RES ovarian
UACC-62 melanoma = test system: UACC-62 melanoma
HOP-92 NSCLC = test system: HOP-92 NSCLC
BT-549 breast = test system: BT-549 breast
EKVX NSCLC = test system: EKVX NSCLC
MDA-N = test system: MDA-N
MCF7 breast = test system: MCF7 breast
PC-3 prostate = test system: PC-3 prostate
DU-145 prostate = test system: DU-145 prostate
HS 578T breast = test system: HS 578T breast

**Q.** With CCN(CC)c1ccc(Cl)c2c1C(O)(C(C)C)C2(C)C (stereo not drawn) as the molecule, how does the TGI (CAKI-1 renal) read?
**A.** 34.2 µM

**Q.** And the TGI (SNB-78 CNS)?
**A.** 69.4 µM

**Q.** What about the TGI (LXFL 529 NSCLC) of the same molecule?
**A.** 31.5 µM

**Q.** What about the TGI (MALME-3M melanoma) of the same molecule?
**A.** 27.4 µM

**Q.** And the TGI (OVCAR-8 ovarian)?
**A.** 33.4 µM

**Q.** And the TGI (KM12 colon)?
**A.** 28.4 µM

**Q.** And the TGI (OVCAR-4 ovarian)?
**A.** 33.3 µM

**Q.** What about the TGI (NCI-H226 lung) of the same molecule?
**A.** 33.6 µM

**Q.** What about the TGI (SK-MEL-5 melanoma) of the same molecule?
**A.** 28.8 µM

**Q.** And the TGI (HCC-2998 colon)?
**A.** 30.3 µM

**Q.** What about the TGI (IGROV1 ovarian) of the same molecule?
**A.** 27.8 µM

**Q.** What about the TGI (HOP-62 NSCLC) of the same molecule?
**A.** 39 µM

**Q.** And the TGI (M14 melanoma)?
**A.** 30.5 µM

**Q.** And the TGI (NCI-H23 lung)?
**A.** 29 µM

**Q.** What about the TGI (SK-MEL-2 melanoma) of the same molecule?
**A.** 29.4 µM

**Q.** What about the TGI (DMS 273 small cell lung) of the same molecule?
**A.** 29.5 µM

**Q.** What about the TGI (OVCAR-5 ovarian) of the same molecule?
**A.** 30.6 µM

**Q.** What about the TGI (HL-60(TB) leukemia) of the same molecule?
**A.** 38.8 µM

**Q.** What about the TGI (HT29 colon) of the same molecule?
**A.** 24.5 µM

**Q.** And the TGI (DMS 114 small cell lung)?
**A.** 36.5 µM

**Q.** What about the TGI (CCRF-CEM leukemia) of the same molecule?
**A.** 39.9 µM

**Q.** What about the TGI (RPMI-8226 leukemia) of the same molecule?
**A.** 31.2 µM

**Q.** What about the TGI (SK-OV-3 ovarian) of the same molecule?
**A.** 29.3 µM

**Q.** What about the TGI (DLD-1 colon) of the same molecule?
**A.** 31.4 µM

**Q.** What about the TGI (U251 CNS) of the same molecule?
**A.** 30.5 µM

**Q.** What about the TGI (LOX IMVI melanoma) of the same molecule?
**A.** 35.1 µM

**Q.** What about the TGI (RXF 393 renal) of the same molecule?
**A.** 29.7 µM

**Q.** What about the TGI (TK-10 renal) of the same molecule?
**A.** 30.2 µM

**Q.** What about the TGI (SNB-75 CNS) of the same molecule?
**A.** 32 µM

**Q.** And the TGI (A498 renal)?
**A.** 35.7 µM

**Q.** And the TGI (NCI-H460 lung)?
**A.** 33.9 µM

**Q.** What about the TGI (ACHN renal) of the same molecule?
**A.** 31.3 µM

**Q.** What about the TGI (M19-MEL melanoma) of the same molecule?
**A.** 29.4 µM

**Q.** What about the TGI (MOLT-4 leukemia) of the same molecule?
**A.** 35.8 µM

**Q.** What about the TGI (NCI-H522 lung) of the same molecule?
**A.** 29.9 µM

**Q.** And the TGI (OVCAR-3 ovarian)?
**A.** 25.2 µM

**Q.** And the TGI (HCT-15 colon)?
**A.** 44.9 µM

**Q.** And the TGI (K-562 leukemia)?
**A.** 43.9 µM

**Q.** And the TGI (786-0 renal)?
**A.** 27.7 µM

**Q.** And the TGI (COLO 205 colon)?
**A.** 28.9 µM

**Q.** And the TGI (SF-268 CNS)?
**A.** 44.2 µM

**Q.** And the TGI (HCT-116 colon)?
**A.** 27 µM

**Q.** And the TGI (A549 NSCLC)?
**A.** 35.1 µM

**Q.** And the TGI (KM20L2 colon)?
**A.** 27.8 µM

**Q.** What about the TGI (SF-539 CNS) of the same molecule?
**A.** 34.2 µM

**Q.** And the TGI (SW-620 colon)?
**A.** 32.6 µM

**Q.** And the TGI (SN12C renal)?
**A.** 30.5 µM

**Q.** And the TGI (SK-MEL-28 melanoma)?
**A.** 37.1 µM

**Q.** And the TGI (UO-31 renal)?
**A.** 32 µM

**Q.** What about the TGI (SNB-19 CNS) of the same molecule?
**A.** 28.7 µM

**Q.** And the TGI (HOP-18 NSCLC)?
**A.** 27.3 µM

**Q.** What about the TGI (UACC-257 melanoma) of the same molecule?
**A.** 27.6 µM

**Q.** What about the TGI (SF-295 CNS) of the same molecule?
**A.** 33 µM

**Q.** Which results are given for NC(CCC(=O)O)C(=O)NC(Cc1ccc(N(CCCl)CCCl)cc1)C(=O)O (stereo not drawn)?
**A.** TGI (CAKI-1 renal): > 100 µM; TGI (MDA-MB-231 breast): > 100 µM; TGI (MALME-3M melanoma): > 100 µM; TGI (OVCAR-8 ovarian): > 100 µM; TGI (KM12 colon): > 100 µM; TGI (OVCAR-4 ovarian): > 100 µM; TGI (NCI-H226 lung): > 100 µM; TGI (MDA-MB-435): > 100 µM; TGI (SK-MEL-5 melanoma): > 100 µM; TGI (HCC-2998 colon): > 100 µM; TGI (IGROV1 ovarian): > 100 µM; TGI (HOP-62 NSCLC): > 100 µM; TGI (M14 melanoma): > 100 µM; TGI (NCI-H23 lung): > 100 µM; TGI (SK-MEL-2 melanoma): > 100 µM; GI50 (SR leukemia): > 100 µM and 28.5 µM; TGI (SR leukemia): > 100 µM; TGI (OVCAR-5 ovarian): > 100 µM; TGI (HL-60(TB) leukemia): > 100 µM; TGI (T-47D breast): > 100 µM; TGI (NCI/ADR-RES ovarian): > 100 µM; TGI (HT29 colon): > 100 µM; TGI (UACC-62 melanoma): > 100 µM; TGI (HOP-92 NSCLC): > 100 µM; TGI (CCRF-CEM leukemia): > 100 µM; TGI (RPMI-8226 leukemia): > 100 µM; TGI (SK-OV-3 ovarian): > 100 µM; TGI (U251 CNS): > 100 µM; TGI (LOX IMVI melanoma): > 100 µM; TGI (BT-549 breast): > 100 µM; TGI (RXF 393 renal): > 100 µM; TGI (TK-10 renal): > 100 µM; TGI (EKVX NSCLC): > 100 µM; TGI (SNB-75 CNS): > 100 µM; TGI (A498 renal): > 100 µM; TGI (MDA-N): > 100 µM; TGI (NCI-H460 lung): > 100 µM; TGI (MCF7 breast): > 100 µM; TGI (ACHN renal): > 100 µM; TGI (MOLT-4 leukemia): > 100 µM; TGI (NCI-H522 lung): > 100 µM; TGI (PC-3 prostate): > 100 µM; TGI (OVCAR-3 ovarian): > 100 µM; TGI (HCT-15 colon): > 100 µM; TGI (K-562 leukemia): > 100 µM; TGI (786-0 renal): > 100 µM; TGI (COLO 205 colon): > 100 µM; TGI (SF-268 CNS): > 100 µM; TGI (HCT-116 colon): > 100 µM; TGI (A549 NSCLC): > 100 µM; TGI (SF-539 CNS): > 100 µM; TGI (SW-620 colon): > 100 µM; TGI (SN12C renal): > 100 µM; TGI (SK-MEL-28 melanoma): > 100 µM; TGI (UO-31 renal): > 100 µM; TGI (SNB-19 CNS): > 100 µM; TGI (DU-145 prostate): > 100 µM; TGI (HS 578T breast): > 100 µM; TGI (UACC-257 melanoma): > 100 µM; TGI (SF-295 CNS): > 100 µM

Source: PubChem BioAssay (NCI)
